This note sets out measurements from ChEMBL document CHEMBL1201862, “PubChem BioAssay data set” (2004).

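In this assay, cells in 96-well plates receive the compound at five concentrations for 48 hours. Endpoints are linearly interpolated between the surrounding concentrations. GI50 = concentration required for 50% inhibition of growth.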 Calls of active or inactive are those of the source. Rule as the data show it: active = GI50 up to about 1.1 µM and inactive = higher.

Test systems include CCRF-CEM; RPMI-8226; SF-295; UACC-257; SK-MEL-28; OVCAR-5; MOLT-4; DLD-1; KM12; M14; SNB-75; SNB-19; K562; SF-539; COLO 205; OVCAR-4; CAKI-1; MCF7; DU-145; SR.
What all share (assay): growth of human tumour cells (NCI), 48 h

With `CC(C)(C)C(=O)/C=C/c1ccc(Oc2ccccc2)cc1`, the GI50 was 10.4 µM (inactive) in the assay on CCRF-CEM; 8.95 µM (inactive) in the assay with RPMI-8226; 24.8 µM (inactive) with SF-295; 18.7 µM (inactive) with UACC-257; 32 µM (inactive) in the assay on SK-MEL-28; 19.3 µM (inactive) in the assay with OVCAR-5. The GI50 is 6.95 µM (inactive) in the assay with MOLT-4; 15 µM (inactive) in the assay with DLD-1; 14.8 µM (inactive) in the assay on KM12; 15.3 µM (inactive) in the assay on M14; 23.4 µM (inactive) in the assay on SNB-75; 26.2 µM (inactive) in the assay on SNB-19. Also, the GI50 in the assay on K562 was 7.03 µM (inactive); in the assay with SF-539, > 10 µM (inactive).
As for `C[N+]1(C)C/C(=C/c2ccc(F)cc2)C(=O)/C(=C\c2ccc(F)cc2)C1`, the GI50 in the assay with CCRF-CEM was 23.7 µM (inactive); in the assay with RPMI-8226, 24.4 µM (inactive); in the assay with SF-295 it was 50.6 µM (inactive); in the assay on UACC-257, 24.7 µM (inactive); in the assay on SK-MEL-28 it was 15 µM (inactive); with COLO 205, 60.7 µM (inactive). Moreover, the GI50 in the assay on OVCAR-5 was > 100 µM (inactive); with MOLT-4, 15.4 µM (inactive); in the assay on OVCAR-4, > 100 µM (inactive); in the assay with DLD-1 it was 30.2 µM (inactive); with KM12, 67.8 µM (inactive); with M14 it was > 100 µM (inactive). Besides, the GI50 in the assay on SNB-75 is 53.8 µM (inactive); in the assay with SNB-19, 49.3 µM (inactive); in the assay on K562, 28.2 µM (inactive); in the assay on SF-539, 38.2 µM (inactive).
Turning to `O=[N+]([O-])c1cccc(-c2oc(/C=N/c3ccccc3)c([N+](=O)[O-])c2-c2cccc([N+](=O)[O-])c2)c1`, the GI50 in the assay on CCRF-CEM, in the assay on RPMI-8226, in the assay with SF-295, in the assay with UACC-257, with SK-MEL-28 and in the assay on COLO 205 was > 100 µM (inactive) each time. Besides, the GI50 with OVCAR-5, with MOLT-4, with DLD-1, with KM12, in the assay with M14 and in the assay with SNB-75 was > 100 µM (inactive) each time. For the same compound, the GI50 in the assay on K562 and in the assay with SF-539 was > 100 µM (inactive) throughout.
With `CC[C@@]1(O)C(=O)OCc2c1cc1n(c2=O)Cc2c-1nc1ccccc1c2/C=N\NC(=O)C(N)CS` (some centres undefined), the GI50 is 0.0446 µM (active) in the assay on CCRF-CEM; 1.32 µM (inactive) with RPMI-8226; 0.501 µM (active) in the assay on SF-295; 7.26 µM (inactive) with UACC-257; 5.5 µM (inactive) in the assay with SK-MEL-28; 41.4 µM (inactive) with COLO 205. In addition, the GI50 in the assay with OVCAR-5 is 17.3 µM (inactive); in the assay with CAKI-1, 0.495 µM (active); in the assay with MOLT-4, 0.0794 µM (active); in the assay with OVCAR-4, 53.2 µM (inactive); with KM12, 24.8 µM (inactive); in the assay on MCF7, 0.206 µM (active). Also, the GI50 was 0.435 µM (active) with DU-145; 0.665 µM (active) in the assay with M14; 0.573 µM (active) in the assay with SNB-75; 0.571 µM (active) in the assay on SNB-19; 1.5 µM (inactive) with K562; 0.249 µM (active) with SF-539. Also, in the assay with SR, the GI50 was 0.0373 µM (active).
`CC(C)[Si](Oc1cc2c3c(ccc2c(O)c1[C@@H](C)CO[Si](C)(C)C(C)(C)C)C(C)(C)CCC3)(C(C)C)C(C)C`: the GI50 was 43.4 µM (inactive) in the assay on CCRF-CEM; 49.8 µM (inactive) in the assay on RPMI-8226; 92.3 µM (inactive) in the assay on SF-295; 29.4 µM (inactive) with UACC-257; > 100 µM (inactive) with SK-MEL-28; > 100 µM (inactive) with COLO 205. Besides, the GI50 was > 100 µM (inactive) in the assay on OVCAR-5; > 100 µM (inactive) with CAKI-1; 29.9 µM (inactive) with MOLT-4; > 100 µM (inactive) in the assay with OVCAR-4; > 100 µM (inactive) in the assay with KM12; > 100 µM (inactive) in the assay on MCF7. Moreover, the GI50 in the assay on DU-145 was > 100 µM (inactive); in the assay with M14, > 100 µM (inactive); in the assay on SNB-75 it was 69.8 µM (inactive); with SNB-19, > 100 µM (inactive); in the assay on K562, 43.7 µM (inactive); in the assay on SF-539, > 100 µM (inactive). In the assay with SR, the GI50 is 51.5 µM (inactive).
Turning to `O=C1c2c(ccc3c2CCCC3)CC12Cc1ccccc1C2`, the GI50 in the assay with CCRF-CEM is 10.8 µM (inactive); with RPMI-8226, 4.35 µM (inactive); with SF-295, 19 µM (inactive); with UACC-257, 16.6 µM (inactive); in the assay with SK-MEL-28, 14.4 µM (inactive); in the assay with COLO 205, 15.1 µM (inactive). For the same compound, the GI50 with OVCAR-5 was 21.8 µM (inactive); with CAKI-1, 7.62 µM (inactive); in the assay with MOLT-4, 4.03 µM (inactive); in the assay on OVCAR-4 it was 40.8 µM (inactive); with KM12, 16.4 µM (inactive); with MCF7, 17 µM (inactive). Moreover, the GI50 in the assay on DU-145 was 22.3 µM (inactive); with M14, 21 µM (inactive); with SNB-75 it was 20.4 µM (inactive); with SNB-19, 58.6 µM (inactive); in the assay on K562, 11.8 µM (inactive); in the assay on SF-539 it was 6.31 µM (inactive). Moreover, the GI50 in the assay on SR is 4.57 µM (inactive).
Take `N#CCCN(CCCN(C(=O)Nc1ccccc1)c1ccccc1)C(=O)Nc1ccccc1`: the GI50 was 33.7 µM (inactive) in the assay with CCRF-CEM; 53 µM (inactive) with RPMI-8226; > 100 µM (inactive) with SF-295; > 100 µM (inactive) in the assay on UACC-257; > 100 µM (inactive) in the assay on SK-MEL-28; > 100 µM (inactive) with COLO 205. Besides, the GI50 in the assay with OVCAR-5 was > 100 µM (inactive); with CAKI-1 it was 15 µM (inactive); in the assay with MOLT-4, 32.6 µM (inactive); with OVCAR-4, > 100 µM (inactive); in the assay with KM12, 87.9 µM (inactive); in the assay on MCF7 it was 84.5 µM (inactive). Besides, the GI50 in the assay with DU-145 is > 100 µM (inactive); with M14 it was > 100 µM (inactive); in the assay with SNB-75, 44.8 µM (inactive); in the assay on SNB-19 it was 64.3 µM (inactive); in the assay on K562, 54.3 µM (inactive); with SF-539, > 100 µM (inactive). In addition, the GI50 in the assay with SR was > 100 µM (inactive).
On to `O=S(=O)(N=S(c1ccc(Cl)cc1)c1ccc(Cl)cc1)c1ccccc1`, for which the GI50 in the assay on CCRF-CEM is 59.4 µM (inactive); in the assay with RPMI-8226, 40.4 µM (inactive); with SF-295, 68.5 µM (inactive); in the assay with UACC-257, 77.4 µM (inactive); in the assay on SK-MEL-28, > 100 µM (inactive); with COLO 205 it was > 100 µM (inactive). The GI50 was > 100 µM (inactive) with OVCAR-5; > 100 µM (inactive) in the assay on CAKI-1; 33.8 µM (inactive) in the assay on MOLT-4; 58.5 µM (inactive) with OVCAR-4; 96.6 µM (inactive) with KM12; 50.9 µM (inactive) in the assay with MCF7. Moreover, the GI50 with DU-145 was > 100 µM (inactive); with M14, > 100 µM (inactive); in the assay with SNB-75 it was > 100 µM (inactive); with SNB-19, > 100 µM (inactive); in the assay on K562 it was 46.8 µM (inactive); in the assay with SF-539, > 100 µM (inactive). The GI50 in the assay on SR was 37.5 µM (inactive).
